The assay concerns purified rat motoneurons. The conditions noted are these: BDNF 1 ng/ml.

Description: The effect of the combination has been studied on the cellular death of purified rat motoneurons which is induced by sera from patients suffering from amyotrophic lateral sclerosis.
Purified motoneurons prepared from the spinal cord of rat embryos at 14 days of gestation are cultured in the presence of optimum concentrations of recombinant “brain-derived neurotrophic factor” (BDNF), one of the principal neurotrophic factors for the survival of the motoneurons. […] After a further 2 hours, dilutions of dialyzed sera from patients suffering from ALS are added. On the next day, the number of surviving motoneurons is evaluated by direct counting under a phase contrast microscope.
The stock solution of gabapentin is prepared directly by dissolving 17.1 mg of gabapentin in 1 ml of double distilled water.
Rat embryos at 14 days of gestation (Charles River, France) are recovered after sacrificing the mother, under CO2 anesthesia, by pulling the neck. These embryos are placed in phosphate buffer (“phosphate-buffered saline”, PBS) free of calcium and magnesium (Life Technologies).
Unless otherwise stated, the composition of the media used is identical to that indicated in these references. Spinal cords from rat embryos at 14 days of gestation are dissected in sterile PBS and the ventral halves of each cord containing the motoneurons are subdissected. […]

In the case of `NCC1(CC(=O)O)CCCCC1` [Gabapentin], the “Number of motoneurons, Mean (± SEM)” value (mean of 8 measurements, 4 wells, ALS serum 0.1%, Gabapentin 10^−5 M alone) is 5.0. Also, for the setting “medium treated with gabapentin alone, ALS serum”, the “survival of the motoneurons” value turned out to be 8%.

Values taken from patent US6350768B1 (Aventis Pharma S.A., priority 1999, dated 2002).
